This is an account of results in paper PMC7180948, “New Insights into 4-Anilinoquinazolines as Inhibitors of Cardiac Troponin I–Interacting Kinase (TNNi3K)” (Molecules, 2020).

SMILES strings stand for the structures.

A word on the inhibition: it is the change of the read-out against control, counted positive when it falls.

Assay in all cases: biochemical
Common to all, as to set-up: KINOMEscan competition binding panel (Eurofins DiscoverX), single concentration, percent inhibition
Details in all cases: read-out: 15 at 1 µM % inhibition

One experiment concerns the target T1, SGK (Homo sapiens, UniProt O00141).
T1 construct: gene SGK1
The essentials: (§1)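 A single 1 µM concentration of each compound is screened across upwards of 400 human kinases using the KINOMEscan format.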

In the next experiment the target is T2, MLCK (Homo sapiens, UniProt Q32MK0).
T2 construct: gene MYLK3
T2 sequence (Q32MK0 whole entry): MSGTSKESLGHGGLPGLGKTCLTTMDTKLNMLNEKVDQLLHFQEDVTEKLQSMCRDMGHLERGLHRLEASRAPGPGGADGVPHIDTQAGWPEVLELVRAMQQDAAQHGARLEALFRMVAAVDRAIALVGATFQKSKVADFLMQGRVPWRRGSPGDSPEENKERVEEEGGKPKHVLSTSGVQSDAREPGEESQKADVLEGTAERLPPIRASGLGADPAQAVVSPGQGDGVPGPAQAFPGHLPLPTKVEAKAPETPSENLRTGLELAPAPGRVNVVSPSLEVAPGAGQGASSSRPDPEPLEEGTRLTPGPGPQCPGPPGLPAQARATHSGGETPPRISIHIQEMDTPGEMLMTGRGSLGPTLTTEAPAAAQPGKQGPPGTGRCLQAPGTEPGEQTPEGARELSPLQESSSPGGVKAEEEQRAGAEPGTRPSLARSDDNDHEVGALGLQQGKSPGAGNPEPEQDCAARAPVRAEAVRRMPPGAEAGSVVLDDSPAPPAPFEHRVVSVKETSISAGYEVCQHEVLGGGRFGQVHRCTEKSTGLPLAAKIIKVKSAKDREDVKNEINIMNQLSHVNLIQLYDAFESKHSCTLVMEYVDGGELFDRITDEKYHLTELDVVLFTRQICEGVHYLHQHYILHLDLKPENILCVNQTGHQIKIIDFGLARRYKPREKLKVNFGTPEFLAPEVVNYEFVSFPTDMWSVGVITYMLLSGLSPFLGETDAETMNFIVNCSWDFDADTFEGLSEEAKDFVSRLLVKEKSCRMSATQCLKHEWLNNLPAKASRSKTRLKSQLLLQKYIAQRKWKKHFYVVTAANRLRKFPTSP
The method, boiled down: as §1

The next experiment deals with CSNK1A1L (Homo sapiens, UniProt Q8N752). The essentials: as §1
Chain of CSNK1A1L (Q8N752 whole entry): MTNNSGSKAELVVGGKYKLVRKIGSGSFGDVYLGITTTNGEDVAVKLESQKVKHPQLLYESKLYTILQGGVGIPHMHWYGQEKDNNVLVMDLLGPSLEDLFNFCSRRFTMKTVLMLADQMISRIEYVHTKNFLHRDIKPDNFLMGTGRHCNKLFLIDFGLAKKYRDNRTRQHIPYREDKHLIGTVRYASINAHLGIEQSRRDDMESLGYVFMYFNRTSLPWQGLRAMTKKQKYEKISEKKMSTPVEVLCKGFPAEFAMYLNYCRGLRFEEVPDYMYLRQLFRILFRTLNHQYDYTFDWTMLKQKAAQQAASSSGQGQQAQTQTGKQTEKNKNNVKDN
Another experiment concerns the target DAPK2 (Homo sapiens, UniProt Q9UIK4). The method, boiled down: as §1
The target of another experiment is PIKFYVE (Homo sapiens, UniProt Q9Y2I7). The essentials: as §1
Another experiment deals with T3, BRK (Homo sapiens, UniProt Q13882).
T3 construct: gene PTK6
The essentials:
as §1

For a further experiment, the target named is CAMK1D (Homo sapiens, UniProt Q8IU85). The method, boiled down: as §1
The next experiment addresses T4, TRKB (Homo sapiens, UniProt Q16620).
T4 construct: gene NTRK2
The essentials:
as §1

A further experiment has as its target FLT3 (Homo sapiens, UniProt P36888). The essentials: as §1
In a further experiment the target is T5, PIK4CB (Homo sapiens, UniProt Q9UBF8).
T5 construct: gene PI4KB
The method, boiled down: as §1

The next experiment deals with T6, YSK4 (Homo sapiens, UniProt Q56UN5).
T6 construct: gene MAP3K19
The essentials: as §1

In a further experiment the target is MARK4 (Homo sapiens, UniProt Q96L34). The method, boiled down: as §1
Chain of MARK4 (Q96L34 whole entry): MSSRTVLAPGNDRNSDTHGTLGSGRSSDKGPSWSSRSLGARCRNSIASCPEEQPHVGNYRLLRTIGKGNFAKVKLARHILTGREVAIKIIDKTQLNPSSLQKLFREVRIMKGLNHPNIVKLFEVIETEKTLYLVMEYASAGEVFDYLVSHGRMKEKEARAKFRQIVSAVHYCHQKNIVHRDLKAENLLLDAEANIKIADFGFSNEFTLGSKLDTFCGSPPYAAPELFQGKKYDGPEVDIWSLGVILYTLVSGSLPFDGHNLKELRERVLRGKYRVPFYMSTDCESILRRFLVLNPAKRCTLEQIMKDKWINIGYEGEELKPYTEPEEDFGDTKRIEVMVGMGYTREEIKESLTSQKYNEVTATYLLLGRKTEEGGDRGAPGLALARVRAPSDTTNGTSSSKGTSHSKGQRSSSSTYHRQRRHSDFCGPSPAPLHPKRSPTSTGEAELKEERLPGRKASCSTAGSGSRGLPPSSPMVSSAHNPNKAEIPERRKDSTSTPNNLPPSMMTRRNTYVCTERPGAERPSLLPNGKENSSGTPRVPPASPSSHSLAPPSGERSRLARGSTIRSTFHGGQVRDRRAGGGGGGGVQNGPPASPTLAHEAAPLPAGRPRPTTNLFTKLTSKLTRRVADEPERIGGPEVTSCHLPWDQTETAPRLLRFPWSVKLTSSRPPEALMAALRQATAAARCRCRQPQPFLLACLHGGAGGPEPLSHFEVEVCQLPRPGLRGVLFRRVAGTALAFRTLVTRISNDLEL
For another experiment, the target named is SRPK1 (Homo sapiens, UniProt Q96SB4). The essentials: as §1
Chain of SRPK1 (Q96SB4 whole entry): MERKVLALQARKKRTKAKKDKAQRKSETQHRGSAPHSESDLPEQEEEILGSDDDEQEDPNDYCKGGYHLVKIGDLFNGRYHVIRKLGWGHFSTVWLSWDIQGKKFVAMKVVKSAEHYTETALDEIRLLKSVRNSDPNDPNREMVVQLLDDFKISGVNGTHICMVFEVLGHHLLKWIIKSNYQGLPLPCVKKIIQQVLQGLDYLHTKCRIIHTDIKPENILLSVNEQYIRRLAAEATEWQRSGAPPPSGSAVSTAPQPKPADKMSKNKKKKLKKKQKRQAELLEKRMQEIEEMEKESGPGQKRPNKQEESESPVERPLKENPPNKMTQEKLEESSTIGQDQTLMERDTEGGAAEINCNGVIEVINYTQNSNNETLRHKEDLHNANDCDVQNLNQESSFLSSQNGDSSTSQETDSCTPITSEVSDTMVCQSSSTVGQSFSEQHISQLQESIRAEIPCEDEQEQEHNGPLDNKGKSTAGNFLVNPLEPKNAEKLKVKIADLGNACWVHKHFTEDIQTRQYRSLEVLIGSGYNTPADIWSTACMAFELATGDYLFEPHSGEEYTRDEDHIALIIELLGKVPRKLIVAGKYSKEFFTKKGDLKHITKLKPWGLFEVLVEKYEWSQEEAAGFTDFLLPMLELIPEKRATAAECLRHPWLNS
In another experiment the target is EPHB2 (Homo sapiens, UniProt P29323). The method, boiled down:
as §1

For a further experiment, the target named is GRK3 (Homo sapiens, UniProt P35626). The method, boiled down:
as §1

In the next experiment the target is EPHA3 (Homo sapiens, UniProt P29320). The essentials: as §1
For experiment [1], the target named is T7, RSK2(Kin.Dom.2-C-terminal) (Homo sapiens, UniProt P51812).
T7 construct: gene RPS6KA3; Kin.Dom.2-C-terminal
The method, boiled down: as §1

The target of a further experiment is EGFR(S752-I759del) (Homo sapiens, UniProt P00533, DEL752-759). The method, boiled down: as §1
Chain of EGFR(S752-I759del) (P00533 with tags, fused parts or gaps DEL752-759): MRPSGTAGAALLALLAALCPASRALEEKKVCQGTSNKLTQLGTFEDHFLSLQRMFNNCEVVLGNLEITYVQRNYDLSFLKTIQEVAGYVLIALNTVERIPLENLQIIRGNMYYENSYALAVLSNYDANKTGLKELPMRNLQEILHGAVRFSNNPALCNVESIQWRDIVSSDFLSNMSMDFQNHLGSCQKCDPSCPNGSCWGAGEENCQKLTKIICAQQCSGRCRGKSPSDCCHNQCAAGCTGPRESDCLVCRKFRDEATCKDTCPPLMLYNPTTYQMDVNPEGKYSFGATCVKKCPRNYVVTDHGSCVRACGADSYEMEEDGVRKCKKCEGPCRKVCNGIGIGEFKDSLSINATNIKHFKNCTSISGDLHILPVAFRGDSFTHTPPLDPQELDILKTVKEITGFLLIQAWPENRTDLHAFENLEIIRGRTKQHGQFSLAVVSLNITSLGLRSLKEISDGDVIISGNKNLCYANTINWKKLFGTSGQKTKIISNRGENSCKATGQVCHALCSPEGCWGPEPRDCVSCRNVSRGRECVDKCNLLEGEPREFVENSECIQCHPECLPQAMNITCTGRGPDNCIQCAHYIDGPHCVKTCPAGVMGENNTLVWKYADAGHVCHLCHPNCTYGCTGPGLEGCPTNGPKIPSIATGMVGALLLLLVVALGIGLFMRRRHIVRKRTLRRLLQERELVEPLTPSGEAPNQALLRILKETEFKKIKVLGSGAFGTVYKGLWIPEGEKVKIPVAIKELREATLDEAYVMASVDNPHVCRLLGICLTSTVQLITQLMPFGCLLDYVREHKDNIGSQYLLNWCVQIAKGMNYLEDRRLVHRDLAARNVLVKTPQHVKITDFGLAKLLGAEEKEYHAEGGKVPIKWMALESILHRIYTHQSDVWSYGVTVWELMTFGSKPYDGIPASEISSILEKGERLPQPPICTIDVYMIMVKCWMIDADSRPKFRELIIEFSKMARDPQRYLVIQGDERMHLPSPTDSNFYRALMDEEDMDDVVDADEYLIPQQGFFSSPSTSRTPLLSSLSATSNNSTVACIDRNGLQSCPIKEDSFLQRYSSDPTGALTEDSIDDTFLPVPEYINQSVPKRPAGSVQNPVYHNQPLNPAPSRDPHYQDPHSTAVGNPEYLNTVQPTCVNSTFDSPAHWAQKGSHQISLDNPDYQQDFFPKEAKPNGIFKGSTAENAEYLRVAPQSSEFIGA
The next experiment deals with NEK5 (Homo sapiens, UniProt Q6P3R8). The essentials: as §1
The next experiment has as its target PKN1 (Homo sapiens, UniProt Q16512). The essentials: as §1
Another experiment has as its target T8, VEGFR2 (Homo sapiens, UniProt P35968).
T8 construct: gene KDR
The method, boiled down:
as §1

The target in a further experiment is PLK3 (Homo sapiens, UniProt Q9H4B4). The essentials:
as §1

Experiment [2] concerns the target T9, ABL1(H396P)-nonphosphorylated (Homo sapiens, UniProt P00519, H396P).
T9 construct: nonphosphorylated
The method, boiled down: as §1

For the next experiment, the target named is CLK1 (Homo sapiens, UniProt P49759). The method, boiled down: as §1

Chain of GRK3 (P35626 whole entry): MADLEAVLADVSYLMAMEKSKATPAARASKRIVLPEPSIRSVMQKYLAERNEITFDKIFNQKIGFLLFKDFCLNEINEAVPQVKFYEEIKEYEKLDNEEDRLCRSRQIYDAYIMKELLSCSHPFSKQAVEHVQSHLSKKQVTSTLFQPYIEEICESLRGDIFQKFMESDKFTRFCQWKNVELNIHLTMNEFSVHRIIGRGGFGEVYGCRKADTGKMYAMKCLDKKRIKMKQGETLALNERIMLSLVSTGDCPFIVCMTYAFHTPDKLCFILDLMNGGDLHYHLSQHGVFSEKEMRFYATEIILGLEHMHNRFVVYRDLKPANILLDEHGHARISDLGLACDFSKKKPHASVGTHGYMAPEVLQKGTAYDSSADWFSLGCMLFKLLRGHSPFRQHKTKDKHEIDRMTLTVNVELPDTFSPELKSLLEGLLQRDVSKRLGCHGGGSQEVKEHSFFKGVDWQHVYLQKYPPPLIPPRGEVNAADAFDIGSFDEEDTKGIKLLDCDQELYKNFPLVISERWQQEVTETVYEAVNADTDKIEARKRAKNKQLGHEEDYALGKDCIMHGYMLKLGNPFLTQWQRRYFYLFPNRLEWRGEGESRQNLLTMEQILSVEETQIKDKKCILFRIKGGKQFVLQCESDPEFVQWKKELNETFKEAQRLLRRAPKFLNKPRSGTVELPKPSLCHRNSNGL
T1 sequence (O00141 whole entry): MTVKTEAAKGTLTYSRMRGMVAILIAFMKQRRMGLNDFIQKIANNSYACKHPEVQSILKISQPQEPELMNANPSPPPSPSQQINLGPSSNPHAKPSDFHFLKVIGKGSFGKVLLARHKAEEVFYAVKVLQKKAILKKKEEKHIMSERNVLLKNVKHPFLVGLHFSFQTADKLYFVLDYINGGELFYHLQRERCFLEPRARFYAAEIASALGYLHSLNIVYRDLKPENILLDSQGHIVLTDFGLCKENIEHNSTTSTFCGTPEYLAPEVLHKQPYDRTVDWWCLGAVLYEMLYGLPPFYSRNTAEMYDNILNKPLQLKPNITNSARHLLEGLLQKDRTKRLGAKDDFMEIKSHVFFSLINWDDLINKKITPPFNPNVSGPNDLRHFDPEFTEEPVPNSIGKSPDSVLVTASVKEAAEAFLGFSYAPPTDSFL

For `CNS(=O)(=O)c1ccc(N(C)C)c(Nc2nc(C)nc3cc(OC)c(OC)cc23)c1` [compound 15, 3-((6,7-dimethoxy-2-methylquinazolin-4-yl)amino)-4-(dimethylamino)-N-methylbenzenesulfonamide], the inhibition at 1 µM at SGK stood at 39%; at MLCK it was 4%; at CSNK1A1L, 0%; at DAPK2, 0%; on PIKFYVE, 13%; at BRK it was 0%. Besides, the inhibition at 1 µM at CAMK1D was determined as 0%; on TRKB, 22%; on FLT3 it was 10%; on PIK4CB it was 12%; on YSK4, 0%; at MARK4 it was 0%. For the same compound, the inhibition at 1 µM at SRPK1 was 0%; at EPHB2, 2%; at GRK3 it was 32%; at EPHA3 it was 2%; in experiment [1], 16%; on EGFR(S752-I759del), 9%. The inhibition at 1 µM was determined as 0% on NEK5; 5% at PKN1; 12% on VEGFR2; 8% at PLK3; 31% in experiment [2]; 0% on CLK1.
